# Values of other authors in patent publication US20130216646A1, “Nanoparticles of Nutritional and Pharmaceutical Compounds” (priority 2011, published 2013).
# Like-named read-outs stand apart in the source and are kept apart here.
# Tests used:
# [1] = dogs
# [2] = for Sojourn time: another study
# [3] = in vivo
smiles,measurement,setting,value
[Ca+2] [calcium],Share of calcium absorption occurring in the duodenum,"rat intestine, another study",7%
same,Share of calcium absorption occurring in the ileum,"rat intestine, another study",65%
same,Share of calcium absorption occurring in the jejunum,"rat intestine, another study",17%
same,Share of calcium absorption occurring in the duodenum,"rat small intestine, one study",8%
same,Share of calcium absorption occurring in the ileum,"rat small intestine, one study",88%
same,Share of calcium absorption occurring in the jejunum,"rat small intestine, one study",4%
same,Share of calcium absorption occurring in the duodenum,[1],4%
same,Share of calcium absorption occurring in the ileum,[1],80%
same,Share of calcium absorption occurring in the jejunum,[1],16%
same,Transit half-time,[2]; rat duodenum,6 min
same,Sojourn time,[2]; rat duodenum,2.2 min
same,Transit half-time,[2]; rat ileum,102 min
same,Sojourn time,[2]; rat ileum,121.5 min
same,Share of overall calcium absorption accounted for by the small intestine,[3],about 90%
